From ChEMBL document CHEMBL4043117, “Potential peptidic proteasome inhibitors by incorporation of an electrophilic trap based on amino acid derived α-substituted sulfonyl fluorides” (Bioorg Med Chem, 2017)
Active and inactive are the calls of the source. The calls are words filed in the database; no cut-off is given here.

Assays:
[1] = Stability in PBS buffer at pH 6.5 assessed as half life for compound hydrolysis by HPLC method; assay type: physicochemical
[2] = Stability in PBS buffer at pH 7.4 assessed as half life for compound hydrolysis by HPLC method; assay type: physicochemical
[3] = Stability in PBS buffer at pH 8 assessed as half life for compound hydrolysis by HPLC method; assay type: physicochemical
[4] = species on record: Homo sapiens; assay: Inhibition of human erythrocyte 20S proteasome at 0.002 to 400 uM using Suc-LLVY-AMC substrate incubated for 1 hr by fluorescence assay
[5] = species on record: Homo sapiens; assay: Inhibition of human erythrocyte 20S proteasome at 0.002 to 400 uM using compounds dissolved in 20% v/v DMSO in presence of Suc-LLVY-AMC substrate incubated for 1 hr by fluorescence assay

| SMILES | half-life [1] [h] | half-life [2] [h] | half-life [3] [h] | inhibition [4] | inhibition [5] |
| --- | --- | --- | --- | --- | --- |
| CC(C)C[C@@H](CS(=O)(=O)F)NC(=O)[C@H](CC(C)C)NC(=O)[C@H](CC(C)C)NC(=O)[C@H](CC(C)C)NC(=O)OCc1ccccc1 | 10 to 12 | 10 to 12 | 10 to 12 | Active |  |
| CC(C)C[C@@H](CNC(=O)[C@H](Cc1ccccc1)NC(=O)[C@H](CC(C)C)NC(=O)[C@H](CCc1ccccc1)NC(=O)CN1CCOCC1)S(=O)(=O)F |  |  |  | inactive | inactive |
| CC(C)C[C@H](NC(=O)[C@H](CCc1ccccc1)NC(=O)CN1CCOCC1)C(=O)N[C@@H](Cc1ccccc1)C(=O)NC[C@H](Cc1ccccc1)S(=O)(=O)F |  |  |  | inactive | inactive |
| CC(C)C[C@@H](CNC(=O)[C@H](CC(C)C)NC(=O)[C@H](CC(C)C)NC(=O)[C@H](CC(C)C)NC(=O)OCc1ccccc1)S(=O)(=O)F | 5 to 7 | 5 to 7 | 5 to 7 | inactive | inactive |
| CC(C)C[C@H](NC(=O)OCc1ccccc1)C(=O)N[C@@H](CC(C)C)C(=O)NC[C@H](Cc1ccccc1)S(=O)(=O)F |  |  |  | inactive | inactive |
| CC(C)C[C@H](NC(=O)OCc1ccccc1)C(=O)N[C@@H](CC(C)C)C(=O)N[C@@H](CC(C)C)C(=O)NC[C@H](Cc1ccccc1)S(=O)(=O)F |  |  |  | inactive | inactive |
| CC(C)C[C@@H](CNC(=O)[C@H](CC(C)C)NC(=O)[C@H](CC(C)C)NC(=O)OCc1ccccc1)S(=O)(=O)F | 5 to 7 | 5 to 7 | 5 to 7 | inactive | inactive |
| CC(C)C[C@@H](CS(=O)(=O)F)NC(=O)[C@H](CC(C)C)NC(=O)[C@H](CC(C)C)NC(=O)OCc1ccccc1 | 10 to 12 | 10 to 12 | 10 to 12 | Active |  |
